{"source": "ChEMBL document CHEMBL1201862", "about": "“PubChem BioAssay data set” (2004)", "assay_in_all_cases": "inhibition of tumour cell growth, NCI panel, 48 h", "key": {"Malme-3M": {"system": "Malme-3M"}, "HCC 2998": {"system": "HCC 2998"}, "SF-539": {"system": "SF-539"}, "A549": {"system": "A549"}, "SF-295": {"system": "SF-295"}, "HOP-18": {"system": "HOP-18"}, "KM-20L2": {"system": "KM-20L2"}, "HCT-116": {"system": "HCT-116"}, "CAKI-1": {"system": "CAKI-1"}, "SN12C": {"system": "SN12C"}, "XF498": {"system": "XF498"}, "HCT-15": {"system": "HCT-15"}, "DMS-114": {"system": "DMS-114"}, "M14": {"system": "M14"}, "DLD-1": {"system": "DLD-1"}, "SK-MEL-2": {"system": "SK-MEL-2"}, "HL-60": {"system": "HL-60"}, "ACHN": {"system": "ACHN"}, "SR": {"system": "SR"}, "UACC-62": {"system": "UACC-62"}, "SF-268": {"system": "SF-268"}, "HOP-62": {"system": "HOP-62"}, "KM12": {"system": "KM12"}, "OVCAR-4": {"system": "OVCAR-4"}, "A498": {"system": "A498"}, "TK-10": {"system": "TK-10"}, "NCI-H23": {"system": "NCI-H23"}, "U-251": {"system": "U-251"}, "HT-29": {"system": "HT-29"}, "RPMI-8226": {"system": "RPMI-8226"}, "NCI-H226": {"system": "NCI-H226"}, "786-0": {"system": "786-0"}, "DMS-273": {"system": "DMS-273"}, "LXFL 529": {"system": "LXFL 529"}, "MOLT-4": {"system": "MOLT-4"}, "OVCAR-5": {"system": "OVCAR-5"}, "IGROV-1": {"system": "IGROV-1"}, "SNB-75": {"system": "SNB-75"}, "HOP-92": {"system": "HOP-92"}, "SK-OV-3": {"system": "SK-OV-3"}, "CCRF-CEM": {"system": "CCRF-CEM"}, "UO-31": {"system": "UO-31"}, "M19-MEL": {"system": "M19-MEL"}, "OVCAR-3": {"system": "OVCAR-3"}, "UACC-257": {"system": "UACC-257"}, "SK-MEL-5": {"system": "SK-MEL-5"}, "EKVX": {"system": "EKVX"}, "OVCAR-8": {"system": "OVCAR-8"}, "K562": {"system": "K562"}, "SW-620": {"system": "SW-620"}, "COLO 205": {"system": "COLO 205"}, "RXF 393": {"system": "RXF 393"}, "NCI-H460": {"system": "NCI-H460"}, "LOX IMVI": {"system": "LOX IMVI"}, "SK-MEL-28": {"system": "SK-MEL-28"}, "SNB-78": {"system": "SNB-78"}}, "note": "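Dose response: 5 concentrations. Exposure: 48 h. Format: 96-well plates. Endpoint: linear interpolation; highest concentration if not reached. Abbreviation: GI50, concentration required for 50% inhibition of growth.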 Active and inactive are the calls of the source. Rule as the data show it: active = GI50 up to about 1.1 µM and inactive = higher.", "data": [{"smiles": "C/C(=N\\NS(=O)(=O)c1ccccc1)c1ccc(Cl)c(Cl)c1", "values": [{"measurement": "GI50", "setting": "Malme-3M", "value": "68.2 µM (inactive)"}, {"measurement": "GI50", "setting": "HCC 2998", "value": "71.1 µM (inactive)"}, {"measurement": "GI50", "setting": "SF-539", "value": "43 µM (inactive)"}, {"measurement": "GI50", "setting": "A549", "value": "46.2 µM (inactive)"}, {"measurement": "GI50", "setting": "SF-295", "value": "46.3 µM (inactive)"}, {"measurement": "GI50", "setting": "HOP-18", "value": "49.8 µM (inactive)"}, {"measurement": "GI50", "setting": "KM-20L2", "value": "72.8 µM (inactive)"}, {"measurement": "GI50", "setting": "HCT-116", "value": "50.9 µM (inactive)"}, {"measurement": "GI50", "setting": "CAKI-1", "value": "75.2 µM (inactive)"}, {"measurement": "GI50", "setting": "SN12C", "value": "45.4 µM (inactive)"}, {"measurement": "GI50", "setting": "XF498", "value": "> 100 µM (inactive)"}, {"measurement": "GI50", "setting": "HCT-15", "value": 57, "unit": "µM"}, {"measurement": "GI50", "setting": "DMS-114", "value": "39.2 µM (inactive)"}, {"measurement": "GI50", "setting": "M14", "value": "45.3 µM (inactive)"}, {"measurement": "GI50", "setting": "DLD-1", "value": "41.8 µM (inactive)"}, {"measurement": "GI50", "setting": "SK-MEL-2", "value": "> 100 µM (inactive)"}, {"measurement": "GI50", "setting": "HL-60", "value": "97.3 µM (inactive)"}, {"measurement": "GI50", "setting": "ACHN", "value": "46.6 µM (inactive)"}, {"measurement": "GI50", "setting": "SR", "value": "62.2 µM (inactive)"}, {"measurement": "GI50", "setting": "UACC-62", "value": "95.5 µM (inactive)"}, {"measurement": "GI50", "setting": "SF-268", "value": "> 100 µM (inactive)"}, {"measurement": "GI50", "setting": "HOP-62", "value": "61.5 µM (inactive)"}, {"measurement": "GI50", "setting": "KM12", "value": "71.1 µM (inactive)"}, {"measurement": "GI50", "setting": "OVCAR-4", "value": "58.9 µM (inactive)"}, {"measurement": "GI50", "setting": "A498", "value": "41.8 µM (inactive)"}, {"measurement": "GI50", "setting": "TK-10", "value": "50.1 µM (inactive)"}, {"measurement": "GI50", "setting": "NCI-H23", "value": "75.3 µM (inactive)"}, {"measurement": "GI50", "setting": "U-251", "value": "37.2 µM (inactive)"}, {"measurement": "GI50", "setting": "HT-29", "value": "44.7 µM (inactive)"}, {"measurement": "GI50", "setting": "RPMI-8226", "value": "67.5 µM (inactive)"}, {"measurement": "GI50", "setting": "NCI-H226", "value": "62.8 µM (inactive)"}, {"measurement": "GI50", "setting": "786-0", "value": "82.2 µM (inactive)"}, {"measurement": "GI50", "setting": "DMS-273", "value": "85.3 µM (inactive)"}, {"measurement": "GI50", "setting": "LXFL 529", "value": "34.5 µM (inactive)"}, {"measurement": "GI50", "setting": "MOLT-4", "value": "47.8 µM (inactive)"}, {"measurement": "GI50", "setting": "OVCAR-5", "value": "> 100 µM (inactive)"}, {"measurement": "GI50", "setting": "IGROV-1", "value": "72.9 µM (inactive)"}, {"measurement": "GI50", "setting": "SNB-75", "value": "50 µM (inactive)"}, {"measurement": "GI50", "setting": "HOP-92", "value": "67 µM (inactive)"}, {"measurement": "GI50", "setting": "SK-OV-3", "value": "67.3 µM (inactive)"}, {"measurement": "GI50", "setting": "CCRF-CEM", "value": "> 100 µM (inactive)"}, {"measurement": "GI50", "setting": "UO-31", "value": "45.4 µM (inactive)"}, {"measurement": "GI50", "setting": "M19-MEL", "value": "57.4 µM (inactive)"}, {"measurement": "GI50", "setting": "OVCAR-3", "value": "25.3 µM (inactive)"}, {"measurement": "GI50", "setting": "UACC-257", "value": "50 µM (inactive)"}, {"measurement": "GI50", "setting": "SK-MEL-5", "value": "42.5 µM (inactive)"}, {"measurement": "GI50", "setting": "EKVX", "value": "67.3 µM (inactive)"}, {"measurement": "GI50", "setting": "OVCAR-8", "value": "40.6 µM (inactive)"}, {"measurement": "GI50", "setting": "K562", "value": "86.5 µM (inactive)"}, {"measurement": "GI50", "setting": "SW-620", "value": "> 100 µM (inactive)"}, {"measurement": "GI50", "setting": "COLO 205", "value": "26.2 µM (inactive)"}, {"measurement": "GI50", "setting": "RXF 393", "value": "55.3 µM (inactive)"}, {"measurement": "GI50", "setting": "NCI-H460", "value": "46.1 µM (inactive)"}, {"measurement": "GI50", "setting": "LOX IMVI", "value": "78.9 µM (inactive)"}, {"measurement": "GI50", "setting": "SK-MEL-28", "value": "63.4 µM (inactive)"}, {"measurement": "GI50", "setting": "SNB-78", "value": "> 100 µM (inactive)"}]}]}
